Source: PMC4012441, “Nature’s Lab for Derivatization: New and Revised Structures of a Variety of Streptophenazines Produced by a Sponge-Derived Streptomyces Strain” (Marine Drugs, 2014)

These molecules were tested against T1, PDE 4B (Homo sapiens, UniProt Q07343) (assay: PDE4B enzyme inhibition assay (according to Schulz et al.)).
T1 construct: gene PDE4B
Assay type: biochemical

T1 sequence (Q07343 whole entry): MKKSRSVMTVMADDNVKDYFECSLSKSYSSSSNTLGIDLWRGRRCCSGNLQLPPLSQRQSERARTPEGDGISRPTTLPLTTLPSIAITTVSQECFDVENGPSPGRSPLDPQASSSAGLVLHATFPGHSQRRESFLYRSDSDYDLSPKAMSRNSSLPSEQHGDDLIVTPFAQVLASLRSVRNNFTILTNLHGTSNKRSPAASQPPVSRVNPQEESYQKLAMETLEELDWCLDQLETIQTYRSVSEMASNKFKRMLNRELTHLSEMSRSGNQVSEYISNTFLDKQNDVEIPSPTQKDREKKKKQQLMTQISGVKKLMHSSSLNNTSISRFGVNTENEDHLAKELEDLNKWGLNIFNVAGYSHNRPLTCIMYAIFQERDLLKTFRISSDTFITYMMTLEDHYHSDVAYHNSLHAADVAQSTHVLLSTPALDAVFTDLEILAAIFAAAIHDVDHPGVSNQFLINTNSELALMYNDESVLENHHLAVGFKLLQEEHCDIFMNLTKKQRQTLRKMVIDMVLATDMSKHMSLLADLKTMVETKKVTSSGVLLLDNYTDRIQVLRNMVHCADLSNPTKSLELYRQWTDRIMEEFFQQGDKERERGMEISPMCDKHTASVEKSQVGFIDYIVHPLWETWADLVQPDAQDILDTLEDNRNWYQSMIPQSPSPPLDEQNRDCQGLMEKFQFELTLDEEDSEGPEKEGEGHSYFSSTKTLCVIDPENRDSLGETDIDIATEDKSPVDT

IC50 [µM] | Structure (SMILES)
12 | COC(=O)c1cccc2nc3c(C(O)C(CCCC(C)C(C)O)C(=O)OC)cccc3nc12 (stereo not drawn) [compound 2, Streptophenazine J]
5.2 | CCC(C)CCC[C@@H](C(=O)OC)[C@H](O)c1cccc2nc3c(C(=O)OC)cccc3nc12 (stereo partly drawn) [compound 9, Streptophenazine G]
12.2 | CCC(C)CCC[C@@H](C(=O)OC)[C@H](O)c1cccc2nc3c(C(=O)O)cccc3nc12 (stereo partly drawn) [compound 3, Streptophenazine K]
